# Patent publication US20100010078A1, “METHODS OF TREATING ANDROGEN DEPENDENT PROSTATE CANCER BY ADMINISTERING AN ACTIVE PHARMACEUTICAL INGREDIENT BEING FISETIN, 3,3',4',7-TETRAHYDROXYFLAVONE OR A DERIVATIVE THEREOF, IN AN ORAL, TRANSDERMAL OR TOPICAL DOSAGE FORM” (priority 2008, published 2010)
# Peptide text beside a SMILES is read from it. * marks the point of attachment. Cbz = O=C(OCc1ccccc1)*; CH2F = FC*
# Experiments:
# caspase-3, -8 and -9 = assay: Western blot, active caspase-3, -8 and -9 in LNCaP cells; type: cell-based, human; conditions: Z-VAD-FMK 40 μM for 2 h before fisetin (10-60 μM), compared to fisetin treatment
# Protocol: Protein extraction and western blotting. Following the treatment of LNCaP cells with fisetin (10-60 μM; 48 h), the media was aspirated, the cells were washed with cold PBS (pH 7.4), and ice-cold lysis buffer (50 mM Tris-HCl, 150 mM NaCl, 1 mM EGTA, 1 mM EDTA, 20 mM NaF, 100 mM Na3VO4, 0.5% NP-40, 1% Triton X-100, 1 mM PMSF (pH 7.4)) with freshly added protease inhibitor cocktail (Protease Inhibitor Cocktail Set III, Calbiochem, La Jolla, Calif.) over ice for 30 min. The cells were scraped and the lysate was collected in a microfuge tube and passed through a needle to break up the cell aggregates. […]
# For western blotting, 30-50 μg protein was resolved over 8-12% polyacrylamide gels and transferred to a nitrocellulose membrane. The blot was blocked in blocking buffer (5% nonfat dry milk/1% Tween 20; in 20 mM TBS, pH 7.6) for 1 hr at room temperature, incubated with appropriate monoclonal or polyclonal primary antibody in blocking buffer for 1.5 h to overnight at 4° C., followed by incubation with anti-mouse or anti-rabbit secondary antibody horseradish peroxidase conjugate obtained from Amersham Life Science Inc. and detected by chemiluminescence and autoradiography using XAR-5 film obtained from Eastman Kodak Co. (Rochester, N.Y., USA). […]
# caspase-3 and -7 = assay: Immunofluorescence staining for active caspase-3 and -7; type: cell-based, human; conditions: LNCaP, Z-VAD-FMK 40 μM for 2 h before fisetin 40 μM
# Protocol: Immunofluorescence staining for active caspase-3 and -7. LNCaP cells were incubated with 40 μM concentration of the general caspase inhibitor Z-VAD-FMK for 2 h, followed by the addition of fisetin (40 μM; 48 h) and then harvested. ICT's Magic Red™ substrate-based MR-Caspase assay kit was used for the immunofluorescence staining for caspase-3 and -7. This kit utilizes the fluorophore, cresyl violet. As the 4 amino acid sequence, aspartylglutamylalanylaspartic acid (DEVD) is the optimal sequence for caspase -3 as well as -7, it was coupled to cresyl violet to create the caspase 3/7 substrate, MR-(DEVD)2. […] Following enzymatic hydrolysis at one or both of the aspartic acid amide linkage sites, the mono and non-substituted cresyl violet fluorophores fluoresce red and fluorescence photographs were obtained at 510-560 nm excitation and 610 nm emission.
structure (smiles),measurement,setting,value
"COC(=O)C[C@H](NC(=O)[C@H](C)NC(=O)[C@@H](NC(=O)OCc1ccccc1)C(C)C)C(=O)CF [Z-VAD-FMK, reference compound] (Cbz-Val-Ala-Asp(OMe)-CH2F)","protein expression of active caspase-3, -8 and -9","caspase-3, -8 and -9",significant decrease
same,immunofluorescence staining of active caspase-3 & -7,caspase-3 and -7,significant decrease
